Data as given in patent publication US20240058315A1, “Pyridine and Pyrazine derivative for the Treatment of CF, COPD, and Bronchiectasis” (NOVARTIS AG, priority 2019, published 2024).

The molecules below were run against ΔF508-CFTR (Homo sapiens (Human), UniProt P13569, DEL508-508) (assay: CFTR potentiator assays (membrane potential, IonWorks Quattro, Ussing chamber ion transport)). Details: CFTR EC50 in 'the data measurements described above'; which of the potentiator assays is not stated.
Type: cell-based
From the text: CFTR activity can be quantified by measuring the transmembrane potential. The means for measuring the transmembrane potential in a biological system can employ a number of methods including electrophysiological and optical fluorescence-based membrane potential assays.
The optical membrane potential assay utilises a negatively charged potentiometric dye, such as the FLIPR membrane potential dye (FMP) (see Baxter D F, Kirk M, Garcia A F, Raimondi A, Holmqvist M H, Flint K K, Bojanic D, Distefano P S, Curtis R, Xie Y. ‘A novel membrane potential-sensitive fluorescent dye improves cell-based assays for ion channels.’ J Biomol Screen. 2002 February; 7(1):79-85) which when extracellular is bound to a quenching agent.
Upon cellular depolarisation the negatively charged dye redistributes to the intracellular compartment, unbinding from the membrane impermeant quench agent, yielding an increase in fluorescence. This change in fluorescence is proportional to the change in transmembrane potential which can result from the activity of CFTR. The changes in fluorescence can be monitored in real time by an appropriately equipped fluorescence detector such as the FLIPR (fluorometric imaging plate reader) in 96 or 384-well microtitre plates.
Chinese hamster ovary (CHO) cells stably expressing the AF508-CFTR channel were used for membrane potential experiments. Cells were maintained at 37° C. in 5% v/v CO2 at 100% humidity in Modified Eagles medium (MEM) supplemented with 8% v/v foetal calf serum, 100 μg/ml methotrexate and 100 U/ml penicillin/streptomycin. Cells were grown in 225 cm^2 tissue culture flasks. For membrane potential assays cells were seeded into 96 well plates at 40,000 cells per well, allowed to adhere and then maintained at 26° C. for 48 h to facilitate channel insertion.
The membrane potential screening assay utilised a low chloride ion containing extracellular solution (˜5 mM) combined with a double addition protocol. The first addition was of buffer with or without test compound followed 5 minutes later by an addition of forskolin (1-20 μM)—this protocol favours maximum chloride efflux in response to ΔF508-CFTR activation. The ΔF508-CFTR mediated chloride ion efflux leads to a membrane depolarisation which is optically monitored by the FMP dye.
Low chloride extracellular (mM): 120 Na-gluconate, 1.2 CaCl2), 3.3 KH2PO4, 0.8 K2HPO4, 1.2 MgCl2, 10.0 D-glucose, 20.0 HEPES, pH 7.4 with NaOH FMP dye: made up as per manufacturers' instructions in low chloride extracellular solution detailed above, at 10× final concentration, and stored as 1 mL aliquots at −20° C.
CFTR activity can also be quantified electrophysiologically using the whole-cell configuration of the patch clamp technique (Hamill et al Pflugers Archive 1981). This assay directly measures the currents associated with chloride flow through CFTR channels whilst either maintaining or adjusting the transmembrane voltage. This assay can use either single glass micropipettes or parallel planar arrays to measure CFTR activity from native or recombinant cell systems. Currents measured using parallel planar arrays can be quantified using an appropriately equipped instrument such as the IonWorks Quattro (Molecular Devices) or the Qpatch (Sophion). The Quattro system can measure CFTR currents from either a single cell per recording well (HT configuration) or alternatively from a population of 64 cells per well (Population Patch Clamp PPC) (Finkel A, Wittel A, Yang N, Handran S, Hughes J, Costantin J. ‘Population patch clamp improves data consistency and success rates in the measurement of ionic currents.’ J Biomol Screen. 2006 August; 11(5):488-96).
Chinese hamster ovary (CHO) cells stably expressing the ΔF508-CFTR channel were used for IonWorks Quattro experiments. […]

Chain of ΔF508-CFTR (P13569 other isoform, or with tags, fused parts or gaps del F508-F508): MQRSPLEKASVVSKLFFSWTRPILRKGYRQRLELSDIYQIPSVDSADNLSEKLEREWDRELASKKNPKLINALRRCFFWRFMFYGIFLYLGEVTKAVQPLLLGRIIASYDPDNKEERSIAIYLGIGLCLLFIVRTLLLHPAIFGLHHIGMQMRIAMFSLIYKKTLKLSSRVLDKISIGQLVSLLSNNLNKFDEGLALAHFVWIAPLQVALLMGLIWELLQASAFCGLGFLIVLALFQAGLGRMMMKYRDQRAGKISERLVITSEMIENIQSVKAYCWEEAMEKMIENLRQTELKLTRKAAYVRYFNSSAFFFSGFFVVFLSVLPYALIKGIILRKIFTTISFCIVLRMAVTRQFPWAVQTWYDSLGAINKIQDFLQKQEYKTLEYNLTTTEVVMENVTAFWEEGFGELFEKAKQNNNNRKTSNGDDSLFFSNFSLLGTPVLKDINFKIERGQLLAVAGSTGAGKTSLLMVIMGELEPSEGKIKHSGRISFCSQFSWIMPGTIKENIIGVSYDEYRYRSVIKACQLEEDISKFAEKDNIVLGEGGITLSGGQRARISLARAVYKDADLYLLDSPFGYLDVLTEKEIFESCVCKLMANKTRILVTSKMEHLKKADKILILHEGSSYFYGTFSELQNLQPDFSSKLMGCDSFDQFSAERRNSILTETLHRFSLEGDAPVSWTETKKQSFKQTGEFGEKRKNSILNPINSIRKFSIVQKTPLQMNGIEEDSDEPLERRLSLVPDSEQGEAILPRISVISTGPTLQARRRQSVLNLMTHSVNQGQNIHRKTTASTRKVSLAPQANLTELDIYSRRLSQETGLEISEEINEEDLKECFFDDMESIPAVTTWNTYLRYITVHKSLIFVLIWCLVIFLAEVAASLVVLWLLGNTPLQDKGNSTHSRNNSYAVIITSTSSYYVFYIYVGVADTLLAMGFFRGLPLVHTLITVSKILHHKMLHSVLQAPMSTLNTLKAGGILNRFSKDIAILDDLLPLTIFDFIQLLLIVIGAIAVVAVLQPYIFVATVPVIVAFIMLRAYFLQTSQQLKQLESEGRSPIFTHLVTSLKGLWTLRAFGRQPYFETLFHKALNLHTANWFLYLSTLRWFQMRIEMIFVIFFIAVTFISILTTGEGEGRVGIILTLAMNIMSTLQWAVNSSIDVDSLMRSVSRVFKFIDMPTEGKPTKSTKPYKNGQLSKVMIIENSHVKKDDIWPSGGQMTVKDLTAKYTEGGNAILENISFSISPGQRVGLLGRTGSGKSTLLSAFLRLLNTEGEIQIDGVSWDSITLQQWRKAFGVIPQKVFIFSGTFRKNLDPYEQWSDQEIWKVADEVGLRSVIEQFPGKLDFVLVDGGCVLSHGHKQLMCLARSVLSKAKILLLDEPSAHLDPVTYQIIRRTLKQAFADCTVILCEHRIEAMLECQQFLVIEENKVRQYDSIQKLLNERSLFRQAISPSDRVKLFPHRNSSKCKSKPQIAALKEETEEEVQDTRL

`C[C@@](O)(CNC(=O)c1nc(C(F)(F)F)c(C(F)(F)F)cc1N)C(F)(F)F` [Example 17, 3-Amino-5,6-bis-trifluoromethyl-pyridine-2-carboxylic acid ((R)-3,3,3-trifluoro-2-hydroxy-2-methyl-propyl)-amide] and `C[C@](O)(CNC(=O)c1nc(C(F)(F)F)c(C(F)(F)F)cc1N)C(F)(F)F` [Example 16, 3-Amino-5,6-bis-trifluoromethyl-pyridine-2-carboxylic acid ((S)-3,3,3-trifluoro-2-hydroxy-2-methyl-propyl)-amide] are within 1.5-fold of each other in EC50: 10 nM for the first, 8 nM for the second.

First: CC(O)(CNC(=O)c1nc(-c2ccc(Cl)cc2Cl)c(C(F)(F)F)cc1N)C(F)(F)F (single isomer, unassigned) [Example 10, 3-Amino-6-(2,4-dichloro-phenyl)-5-trifluoromethyl-pyridine-2-carboxylic acid (3,3,3-trifluoro-2-hydroxy-2-methyl-propyl)-amide]
Second: C[C@](O)(CNC(=O)c1nc(-c2ccc(F)cc2)c(C(F)(F)F)cc1N)C(F)(F)F [Example 7, 3-Amino-6-(4-fluoro-phenyl)-5-trifluoromethyl-pyridine-2-carboxylic acid ((S)-3,3,3-trifluoro-2-hydroxy-2-methyl-propyl)-amide]
The EC50 of the first is 2.8-fold higher: 112 nM for the first, 40 nM for the second. The second is the more potent here.

Going from `C[C@@](O)(CNC(=O)c1nc(Br)c(C(F)(F)F)cc1N)C(F)(F)F` [Example 2, 3-Amino-6-bromo-5-trifluoromethyl-pyridine-2-carboxylic acid ((R)-3,3,3-trifluoro-2-hydroxy-2-methyl-propyl)-amide] to `C[C@](O)(CNC(=O)c1nc(Br)c(C(F)(F)F)cc1N)C(F)(F)F` [Example 3, 3-Amino-6-bromo-5-trifluoromethyl-pyridine-2-carboxylic acid ((S)-3,3,3-trifluoro-2-hydroxy-2-methyl-propyl)-amide], the EC50 rises from 15 nM to 55 nM (3.7-fold).

Compared with `COc1nc(C(=O)NCC(C)(O)C(F)(F)F)c(N)cc1C(F)(F)F` (racemic) [Example 4, 3-Amino-6-methoxy-5-trifluoromethyl-pyridine-2-carboxylic acid (3,3,3-trifluoro-2-hydroxy-2-methyl-propyl)-amide], `COc1nc(C(=O)NC[C@@](C)(O)C(F)(F)F)c(N)cc1C(F)(F)F` (single isomer, unassigned) [Example 6] is 5.6-fold higher in EC50: 76 nM for the first, 426 nM for the second. The first is the more potent here.

Going from `CC(O)(CNC(=O)c1nc(-c2ccc(Cl)cc2Cl)c(C(F)(F)F)cc1N)C(F)(F)F` (single isomer, unassigned) [Example 9, 3-Amino-6-(2,4-dichloro-phenyl)-5-trifluoromethyl-pyridine-2-carboxylic acid (3,3,3-trifluoro-2-hydroxy-2-methyl-propyl)-amide] to `C[C@@](O)(CNC(=O)c1nc(-c2ccc(F)cc2)c(C(F)(F)F)cc1N)C(F)(F)F` [Example 8, 3-Amino-6-(4-fluoro-phenyl)-5-trifluoromethyl-pyridine-2-carboxylic acid ((R)-3,3,3-trifluoro-2-hydroxy-2-methyl-propyl)-amide], the EC50 falls from 90 nM to 60 nM (1.5-fold). The second is the more potent here.

`COc1nc(C(=O)NCC(O)C(F)(F)F)c(N)cc1C(F)(F)F` (centres unmarked) [Example 12, 3-Amino-6-methoxy-5-trifluoromethyl-pyridine-2-carboxylic acid (3,3,3-trifluoro-2-hydroxy-propyl)-amide] and `Cc1ccc(-c2nc(C(=O)NCC(C)(O)C(F)(F)F)c(N)cc2C(F)(F)F)cn1` (single isomer, unassigned) [Example 15, 5-Amino-6′-methyl-3-trifluoromethyl-[2,3′]bipyridinyl-6-carboxylic acid (3,3,3-trifluoro-2-hydroxy-2-methyl-propyl)-amide] are within 1.5-fold of each other in EC50: 35 nM for the first, 51 nM for the second.

Compared with `CC(C)(O)CNC(=O)c1nc(-c2ccc(F)cc2)c(C(F)(F)F)cc1N` [Example 11, 3-Amino-6-(4-fluoro-phenyl)-5-trifluoromethyl-pyridine-2-carboxylic acid (2-hydroxy-2-methyl-propyl)-amide], `Cc1ccc(-c2nc(C(=O)NCC(O)(C(F)(F)F)C(F)(F)F)c(N)cc2C(F)(F)F)cn1` [Example 14, 5-Amino-6′-methyl-3-trifluoromethyl-[2,3′]bipyridinyl-6-carboxylic acid (3,3,3-trifluoro-2-hydroxy-2-trifluoromethyl-propyl)-amide] is 3.1-fold higher in EC50: 37 nM for the first, 115 nM for the second. The first is the more potent here.
